Results as given in publication PMC12142043, “Cell-based high-content approach for SARS-CoV-2 neutralization identifies unique monoclonal antibodies and PI3K pathway inhibitors” (Frontiers in Cell and Developmental Biology, 2025).
Where a name gives a salt, the structure may show the parent alone. Read-outs that look alike come from different tables or passages of the source.

Key:
[1] = tested on: SARS-CoV-2 (USA-WA1/2020) in Calu-3 cells; assay: microbe, parasite or virus in culture; type: cell-based; details: for EC50: Severe acute respiratory syndrome coronavirus 2, Calu-3, 48 h, read-out: EC50 (μM) dsRNA
[2] = tested on: SARS-CoV-2 (USA-WA1/2020) in Calu-3 cells; type: cell-based
[3] = tested on: Calu-3 cells; assay: cells; details: Homo sapiens, Calu-3, read-out: EC50 (μM) Cell count
[4] = tested on: Calu-3 cells infected with SARS-CoV-2; type: cell-based, human; parameters: key to Grouping with red cluster (mock control) in UMAP: *: Clusters with mock control in high-dose treatment; details: high-dose treatment
[5] = […], above 30 μM reported as >30
[6] = high dose (10 µM), Calu-3, 48 h
[7] = low dose (100 nM), Calu-3, 48 h
[8] = fold: cell count EC50 over dsRNA EC50

| Compound | dsRNA signal, AU High [2, 6] | dsRNA signal, AU Low [2, 7] | EC50 [3] | EC50 [1, 5] | other results |
| --- | --- | --- | --- | --- | --- |
| COCCOc1cnc2ccn([C@H](C)c3nnc4c(F)cc(-c5cnn(C)c5)cn34)c(=O)c2c1 [AMG 337, reference compound] | 6788.1 AU | 33845.4 AU | > 30 µM | – | EC50 (μM) dsRNA [1, 5]: None |
| O=C(NC1CCNCC1)c1[nH]ncc1NC(=O)c1c(Cl)cccc1Cl [AT7519] | 23488.0 AU | 46607.1 AU | 0.646 µM | 1.23 µM | Selectivity index [1, 8]: 0.525 |
| COc1cc([C@@H]2c3cc4c(cc3[C@H](O)[C@H]3COC(=O)[C@@H]23)OCO4)cc(OC)c1OC [AXL1717] | 13380.1 AU | 31807.4 AU | 0.82 µM | 0.00332 µM | Selectivity index [1, 8]: 246.615; Grouping with red cluster (mock control) in UMAP [4]: AXL1717* |
| CC[C@H](Nc1ncnc2[nH]cnc12)c1nc2cccc(F)c2c(=O)n1-c1ccccc1 [CAL-101] | 57616.6 AU | 3708.3 AU | > 30 µM | 0.0521 µM | Selectivity index [1, 8]: >575 |
| N#CCNC(=O)c1ccc(-c2ccnc(Nc3ccc(N4CCOCC4)cc3)n2)cc1 [CYT387] | 36485.3 AU | 15837.3 AU | 2.41 µM | 0.0276 µM | Selectivity index [1, 8]: 87.486 |
| O=S(=O)(c1cccc2cnccc12)N1CCCNCC1 [Fasudil] | – | – | 1.22 µM | 0.0124 µM | Selectivity index [1, 8]: 98.072 |
| CN1CC[C@H](c2c(O)cc(O)c3c(=O)cc(-c4ccccc4Cl)oc23)[C@H](O)C1 [Flavopiridol HCl] | – | – | 0.364 µM | 11.4 µM | Selectivity index [1, 8]: 0.032; Grouping with red cluster (mock control) in UMAP [4]: Flavopiridol HCl*; dsRNA signal, AU High ([2]; high dose (10 µM), Calu-3, 48 h, listed as Flavopiridol hydrochloride): 187.1 AU; dsRNA signal, AU Low ([2]; low dose (100 nM), Calu-3, 48 h, listed as Flavopiridol hydrochloride): 16139.6 AU |
| CC(C)NC[C@@H](C(=O)N1CCN(c2ncnc3c2[C@H](C)C[C@H]3O)CC1)c1ccc(Cl)cc1 [GDC-0068, reference compound] | 10110.1 AU | 18551.4 AU | > 30 µM | > 30 µM | – |
| CC1(C)OCCn2c1nc1c(N3CCOCC3)nc(-c3cnc(N)nc3)nc12 [GDC-0084] | – | – | 1.31 µM | 1.5 µM | Selectivity index [1, 8]: 0.873; Grouping with red cluster (mock control) in UMAP [4]: GDC-0084* |
| O=c1c(-c2ccc(O)cc2)coc2cc(O)cc(O)c12 [Genistein, reference compound] | 5526.1 AU | 19461.3 AU | > 30 µM | – | EC50 (μM) dsRNA [1, 5]: None |
| O=C1Nc2ccccc2/C1=C1/Nc2ccccc2C1=O [Indirubin] | – | – | > 30 µM | – | Selectivity index [1]: >26; EC50 [1]: 1.14 µM |
| Cc1ccc(F)c(NC(=O)Nc2ccc(-c3cccc4[nH]nc(N)c34)cc2)c1 [Linifanib] | 6252.9 AU | 21480.2 AU | > 30 µM | 20.5 µM | Selectivity index [1, 8]: >1.4 |
| C[C@@H](NC(=O)c1ncnc(N)c1Cl)c1ncc(C(=O)Nc2cc(C(F)(F)F)c(Cl)cn2)s1 [MLN 2480] | – | – | > 30 µM | 0.0998 µM | Selectivity index [1, 8]: >300 |
| CN1CCN(c2ccc(OC(F)(F)F)c(Nc3ncc4c(n3)-c3c(c(C(N)=O)nn3CCO)CC4)c2)CC1 [NMS-1286937] | 5848.8 AU | 38547.7 AU | 0.0916 µM | 17.8 µM | Selectivity index [1, 8]: 0.005 |
| CCOc1cc2ncc(C#N)c(Nc3ccc(F)c(Cl)c3)c2cc1NC(=O)/C=C/CN(C)C [Pelitinib] | – | – | 5.88 µM | – | EC50 (μM) dsRNA [1, 5]: None; Grouping with red cluster (mock control) in UMAP [4]: Pelitinib* |
| CNC(=O)c1cc(Oc2ccc(NC(=O)Nc3ccc(Cl)c(C(F)(F)F)c3)c(F)c2)ccn1 [Regorafenib monohydrate] | 7085.4 AU | 14285.8 AU | > 30 µM | 6.46 µM | Selectivity index [1, 8]: >4 |
| Cn1c(=O)c(F)c(Nc2ccc(I)cc2F)c2c(=O)n(C[C@@H](O)CO)cnc21 [TAK-733, reference compound] | 15107.2 AU | 14755.9 AU | > 30 µM | > 30 µM | – |
| O=C1NC(=O)[C@@H](c2cn3c4c(cccc24)CCC3)[C@@H]1c1c[nH]c2ccccc12 [Tivantinib] | 46631.5 AU | 19485.6 AU | 2.21 µM | > 30 µM | Selectivity index [1, 8]: <.07 |
| CC(=O)Nc1cccc(-n2c(=O)n(C3CC3)c(=O)c3c(Nc4ccc(I)cc4F)n(C)c(=O)c(C)c32)c1 [Trametinib] | 36456.5 AU | 10541.3 AU | > 30 µM | 0.398 µM | Selectivity index [1, 8]: >75 |
| CN1CCN(Cc2ccc(-c3cnc4[nH]cc(-c5ccc6[nH]ccc6c5)c4c3)cc2)CC1 [URMC-099] | 20784.2 AU | 7905.7 AU | – | – | – |
| O.O.O.O=C(O)c1ncccc1O.O=C(O)c1ncccc1O.[O]=[V] [VO-Ohpic trihydrate] | 28838.2 AU | 7631.3 AU | – | – | – |
| CCOC(=O)C1=C[C@]2(CC)CCCN3CCc4c(n1c1ccccc41)[C@@H]32 [Vinpocetine] | 5212.2 AU | 19993.1 AU | > 30 µM | 25.7 µM | Selectivity index [1, 8]: >1 |
| c1cncc(CN2CCC(n3ncc4c(N5CCOCC5)nc(-c5ccc6[nH]ccc6c5)nc43)CC2)c1 [WAY-600] | 1003.4 AU | 67106.4 AU | – | – | – |
| COc1cc2ncnc(Nc3ccc(O)c(Br)c3)c2cc1OC [WHI-P154] | 5163.1 AU | 0.0 AU | – | – | – |
| CNC(=O)Nc1ccc(-c2nc(N3CC4CCC(C3)O4)c3cnn(C4CCC5(CC4)OCCO5)c3n2)cc1 [WYE-125132 (WYE-132)] | 4894.7 AU | 21738.1 AU | – | – | – |

| Compound | dsRNA signal, AU High [2, 6] | dsRNA signal, AU Low [2, 7] | EC50 [3] | EC50 [1, 5] | other results |
| --- | --- | --- | --- | --- | --- |
| C=CC(=O)Nc1cccc(Oc2nc(Nc3ccc(N4CCN(C)CC4)cc3)ncc2Cl)c1 [WZ3146] | 23148.6 AU | 16337.5 AU | – | – | – |
| CCC(=O)Nc1cccc(Oc2nc(Nc3ccc(N4CCN(C)CC4)cc3OC)ncc2Cl)c1 [WZ4003] | 30589.4 AU | 38446.0 AU | – | – | – |
| COc1cc(O)c2c(c1)oc(=O)c1c3cc(O)c(O)cc3oc21 [Wedelolactone] | 9001.4 AU | 16105.5 AU | – | – | – |
| COc1ccc(Cl)c(Nc2nc3ccccc3nc2NS(=O)(=O)c2cccc(NC(=O)C(C)(C)N)c2)c1 [XL147] | 6847.8 AU | 47539.1 AU | – | – | – |
| Cc1c(C(=O)N2CCOc3ccc(-c4ccc(N)nc4)cc3C2)ccc(S(C)(=O)=O)c1F [XL388] | 5203.5 AU | 16443.4 AU | – | – | – |
| CCOc1cc(N2CCC(O)CC2)ccc1Nc1ncc2c(n1)N(C)c1ccccc1C(=O)N2C [XMD8-92] | 359.5 AU | 30524.1 AU | – | – | – |
| C[C@@H](N)[C@H]1CC[C@H](C(=O)Nc2ccncc2)CC1 [Y-27632] | 3508.5 AU | 46665.7 AU | – | – | – |
| Cc1cc(C)nc(NS(=O)(=O)c2ccc(NC(=S)NC(=O)COc3ccc(Br)cc3Cl)cc2)n1 [ZCL278] | 9541.3 AU | 41590.0 AU | – | – | – |
| CC(C)N(CCC(=O)c1ccc2ccccc2c1)Cc1ccccc1.Cl [ZM 39923 HCl] | 21395.1 AU | 2858.2 AU | – | – | – |
| FC(F)c1nc2ccccc2n1-c1nc(N2CCOCC2)nc(N2CCOCC2)n1 [ZSTK474] | 6069.9 AU | 23073.5 AU | – | – | – |
| CO[C@H]1C[C@@H]2CC[C@@H](C)[C@@](O)(O2)C(=O)C(=O)N2CCCC[C@H]2C(=O)O[C@H]([C@H](C)C[C@@H]2CC[C@H](n3cnnn3)[C@H](OC)C2)CC(=O)[C@H](C)/C=C(\C)[C@@H](O)[C@@H](OC)C(=O)[C@H](C)C[C@H](C)/C=C/C=C/C=C/1C [Zotarolimus(ABT-578)] | 11435.6 AU | 1864.8 AU | – | – | – |
| AG-18 | 29672.3 AU | 14434.9 AU | – | – | – |
| AZD4547 | 14827.8 AU | 3634.0 AU | – | – | – |
| Anacardic acid | 12779.5 AU | 44703.4 AU | – | – | – |
| CHIR-98014 | – | – | – | – | dsRNA signal, AU High [2]: 63043.9; dsRNA signal, AU Low [2]: 37241.6 |
| Ginkgolide C | 4330.9 AU | 14963.6 AU | – | – | – |
| HG-10-102-01 | 14367.4 AU | 32713.5 AU | – | – | – |
| IC-87114 | 0.0 AU | 60540.6 AU | – | – | – |
| KN-92 | 8269.0 AU | 30018.5 AU | – | – | – |
| KN-93 | 14156.8 AU | 6603.8 AU | – | – | – |
| SC 79 | 17618.8 AU | 5138.7 AU | – | – | – |
| TA 01 | 672.4 AU | 13985.5 AU | – | – | – |
| Telatinib (BAY 57-9352) | 46565.4 AU | 19646.6 AU | – | – | – |
| VX-11e | 6059.4 AU | 11825.4 AU | – | – | – |
| kb NB 142-70 | 958.0 AU | 2847.9 AU | – | – | – |
